Experimental data taken from patent US20250263370A1 (Tay Therapeutics Limited, priority 2022, published 2025).
“Also recorded” adds a separate entry of the source. Where two headings read alike, the source gives them in different places.

Assay: Beagle dog PK study 2 of Example 101 (HPβCD based formulation, IV), with clinical observations
Type: in vivo
Settings: for concentration at 0.083 h / concentration at 0.25 h / concentration at 0.5 h / concentration at 1 h / concentration at 2 h / concentration at 4 h / concentration at 8 h / concentration at 24 h / AUC(0-inf) / AUC(0-t) / C0 / half-life / MRT inf / Vd: beagle, dog, plasma, iv, 1 mg/kg; for MRT inf: read-out: MRTInf—obs; for Vd: read-out: Vss—obs
Procedure: The purpose of this study was to examine the pharmacokinetics of Example 101 in beagle dogs. […] An oral PK study was also undertaken in Lewis rats—see Experimental Method C.
Body weight was recoded prior to dosing, and detailed clinical observations were made prior to dosing and throughout the study, as needed.
78.646 mL of HPβCD (20% solution w/v) was then added with vortex and sonication.
Blood samples (˜0.3 mL) were collected according to a schedule (shown below) by venipuncture of peripheral veins except for the dosing vein, and EDTA-K2 was used as anticoagulant. Within 30 minutes of collection, the samples were centrifuged at approximately 2000×g for 10 minutes at 4° C. to obtain blood plasma. The plasma samples were immediately divided into two aliquots (˜75 μL each), transferred to a cryogenic vial, and stored in a freezer at ˜75±15° C. prior to analysis.
Blood samples were collected at 0.083, 0.25, 0.5, 1, 2, 4, 8, and 24 h following the initial dosing (0 h).
The experiments were conducted on a Shimadzu DGU-20A5R and AB API 5500+LC/MS/MS instrument with an Agilent Poroshell EC-C18 4 μm (50×2.1 mm) column. A gradient of 95% water (0.1% formic acid)/95% acetonitrile (0.1% formic acid) was used as the mobile phase. The sample injection volume was 1 μL, and the flow rate was 0.6 mL/min. The gathered data were used for pharmacokinetic calculations using T½, C0, AUClast, AUCinf, MRTinf, CI, Vss, and Number of Points for Regression as parameters.

[1] = beagle dogs, IV, 0.5 mg/mL in HPβCD based formulation, PK study 2
[2] = dog PK study 2, IV 1 mg/kg, HPβCD, Test Animal 1, read-out: Plasma concentration
[3] = dog PK study 2, IV 1 mg/kg, HPβCD, Test Animal 2, read-out: Plasma concentration
[4] = dog PK study 2, IV 1 mg/kg, HPβCD, Test Animal 3, read-out: Plasma concentration
[5] = dog PK study 2, IV 1 mg/kg, HPβCD, mean, read-out: Average plasma concentration, Mean
[6] = dog PK study 2, IV 1 mg/kg, HPβCD, Test Animal 1
[7] = dog PK study 2, IV 1 mg/kg, HPβCD, Test Animal 2
[8] = dog PK study 2, IV 1 mg/kg, HPβCD, Test Animal 3
[9] = dog PK study 2, IV 1 mg/kg, HPβCD, mean

CNC(=O)c1[nH]c(C(=O)NC2CCC2)cc1O[C@@H](C)c1ccccc1 (stereo in doubt) [Example 101, N^5-cyclobutyl-N^2-methyl-3-(1-phenylethoxy)-1H-pyrrole-2,5-dicarboxamide]
clinical observations [1]: soft feces 8 hours after administration; also recorded: No other clinical observations were made; also recorded: fewer clinical observations in response to Example 101 when prepared in HPβCD
plasma concentration as a function of time (FIGS. 1D-1E) [1]: Plasma concentrations decreased similarly over the first 2 h post-administration
concentration at 0.083 h [2]: 1270 ng/mL
concentration at 0.083 h [3]: 1460 ng/mL
concentration at 0.083 h [4]: 1580 ng/mL
concentration at 0.083 h [5]: 1440 ng/mL
concentration at 0.25 h [2]: 721 ng/mL
concentration at 0.25 h [3]: 820 ng/mL
concentration at 0.25 h [4]: 985 ng/mL
concentration at 0.25 h [5]: 842 ng/mL
concentration at 0.5 h [2]: 322 ng/mL
concentration at 0.5 h [3]: 498 ng/mL
concentration at 0.5 h [4]: 702 ng/mL
concentration at 0.5 h [5]: 507 ng/mL
concentration at 1 h [2]: 187 ng/mL
concentration at 1 h [3]: 140 ng/mL
concentration at 1 h [4]: 320 ng/mL
concentration at 1 h [5]: 216 ng/mL
concentration at 2 h [2]: 49.3 ng/mL
concentration at 2 h [3]: 54.1 ng/mL
concentration at 2 h [4]: 159 ng/mL
concentration at 2 h [5]: 87 ng/mL
concentration at 4 h [2]: 4.83 ng/mL
concentration at 4 h [3]: 10.8 ng/mL
concentration at 4 h [4]: 42.1 ng/mL
concentration at 4 h [5]: 19.2 ng/mL
concentration at 8 h [2]: 0 ng/mL
concentration at 8 h [3]: 2.5 ng/mL
concentration at 8 h [4]: 6.58 ng/mL
concentration at 8 h [5]: 3.03 ng/mL
concentration at 24 h (dog PK study 2, IV 1 mg/kg, HPβCD, 24 h, Test Animal 1): 0 ng/mL
concentration at 24 h (dog PK study 2, IV 1 mg/kg, HPβCD, 24 h, Test Animal 2): 0 ng/mL
concentration at 24 h (dog PK study 2, IV 1 mg/kg, HPβCD, 24 h, Test Animal 3): 0 ng/mL
AUC(0-inf) [6]: 723 ng·h/mL
AUC(0-t) [6]: 719 ng·h/mL
C0 [6]: 1680 ng/mL
half-life [6]: 34.4 min
MRT inf [6]: 36.4 min
Vd [6]: 0.838 L/kg
AUC(0-inf) [7]: 850 ng·h/mL
AUC(0-t) [7]: 844 ng·h/mL
C0 [7]: 1940 ng/mL
half-life [7]: 84.6 min
MRT inf [7]: 45.1 min
Vd [7]: 0.886 L/kg
AUC(0-inf) [8]: 1380 ng·h/mL
AUC(0-t) [8]: 1370 ng·h/mL
C0 [8]: 2000 ng/mL
half-life [8]: 79.8 min
MRT inf [8]: 72 min
Vd [8]: 0.868 L/kg
AUC(0-inf) [9]: 984 ng·h/mL
AUC(0-t) [9]: 977 ng·h/mL
C0 [9]: 1880 ng/mL
half-life [9]: 66 min
MRT inf [9]: 51 min
Vd [9]: 0.864 L/kg
Average plasma concentration, Mean (dog PK study 2, IV 1 mg/kg, HPβCD, 24 h, mean): BLOQ
AUClast/D [6]: 719 (ng · h/mL)/(mg/kg)
AUC—% Extrap—obs [6]: 0.552%
Cl_obs [6]: 23.1 mL/min/kg
AUClast/D [7]: 844 (ng · h/mL)/(mg/kg)
AUC—% Extrap—obs [7]: 0.599%
Cl_obs [7]: 19.6 mL/min/kg
AUClast/D [8]: 1367 (ng · h/mL)/(mg/kg)
AUC—% Extrap—obs [8]: 0.915%
Cl_obs [8]: 12.1 mL/min/kg
AUClast/D [9]: 977 (ng · h/mL)/(mg/kg)
AUC—% Extrap—obs [9]: 0.689%
Cl_obs [9]: 18.3 mL/min/kg
